pIC50: −log10 of the molar value. Where a SMILES comes first, the peptide text is derived from it. Bridges are numbered along the chain shown (N, C = ends). [ ]: non-standard residue; d: D form. Nle = CCCC[C@H](N)C(=O)O
Legend:
human Kv1.1 = target: T1, human Kv1.1 (Homo sapiens, UniProt Q09470); assay: cell-based; conditions: ratio of patch clamp IC50 values
T1 construct: expressed in transfected cells; host or cells: CHO

human Kv1.6 = target: T2, human Kv1.6 (Homo sapiens, UniProt P17658); assay: cell-based; conditions: ratio of patch clamp IC50 values
T2 construct: expressed in transfected cells; host or cells: CHO

Rat whole blood = Rat whole blood (Rattus norvegicus, UniProt P15384); format: cell-based; conditions: IL-17A release, thapsigargin, 24 Hr, at least 2 replicates
human Kv1.2 = target: T3, human Kv1.2 (Homo sapiens, UniProt P16389); assay: cell-based; conditions: ratio of patch clamp IC50 values
T3 construct: expressed in transfected cells; host or cells: CHO
T3 sequence (P16389 whole entry): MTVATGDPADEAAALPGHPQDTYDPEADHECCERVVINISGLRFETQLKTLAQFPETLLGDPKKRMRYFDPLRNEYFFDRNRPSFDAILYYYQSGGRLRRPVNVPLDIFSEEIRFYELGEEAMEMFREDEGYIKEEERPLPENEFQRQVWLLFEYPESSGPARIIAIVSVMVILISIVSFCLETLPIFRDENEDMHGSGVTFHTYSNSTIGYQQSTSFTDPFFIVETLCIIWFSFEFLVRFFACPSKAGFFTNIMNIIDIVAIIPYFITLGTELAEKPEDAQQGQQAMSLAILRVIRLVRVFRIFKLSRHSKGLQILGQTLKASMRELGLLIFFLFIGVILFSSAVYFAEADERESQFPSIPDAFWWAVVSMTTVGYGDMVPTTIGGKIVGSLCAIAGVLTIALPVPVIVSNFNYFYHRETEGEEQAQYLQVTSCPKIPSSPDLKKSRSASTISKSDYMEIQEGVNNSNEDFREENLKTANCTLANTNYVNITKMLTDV

T1 sequence (Q09470 whole entry): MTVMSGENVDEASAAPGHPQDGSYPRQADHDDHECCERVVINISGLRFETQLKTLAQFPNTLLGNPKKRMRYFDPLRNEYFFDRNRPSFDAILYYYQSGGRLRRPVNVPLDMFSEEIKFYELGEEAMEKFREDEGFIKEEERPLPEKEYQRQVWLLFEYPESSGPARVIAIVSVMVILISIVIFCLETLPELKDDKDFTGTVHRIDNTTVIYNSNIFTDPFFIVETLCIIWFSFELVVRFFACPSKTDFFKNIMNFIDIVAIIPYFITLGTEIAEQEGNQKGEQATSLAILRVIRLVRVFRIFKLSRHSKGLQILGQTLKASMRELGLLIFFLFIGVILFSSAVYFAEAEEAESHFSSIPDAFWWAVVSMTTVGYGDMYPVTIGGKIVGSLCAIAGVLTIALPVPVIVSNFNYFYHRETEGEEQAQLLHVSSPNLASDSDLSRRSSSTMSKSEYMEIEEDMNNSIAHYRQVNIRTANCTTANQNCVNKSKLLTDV
T2 sequence (P17658 whole entry): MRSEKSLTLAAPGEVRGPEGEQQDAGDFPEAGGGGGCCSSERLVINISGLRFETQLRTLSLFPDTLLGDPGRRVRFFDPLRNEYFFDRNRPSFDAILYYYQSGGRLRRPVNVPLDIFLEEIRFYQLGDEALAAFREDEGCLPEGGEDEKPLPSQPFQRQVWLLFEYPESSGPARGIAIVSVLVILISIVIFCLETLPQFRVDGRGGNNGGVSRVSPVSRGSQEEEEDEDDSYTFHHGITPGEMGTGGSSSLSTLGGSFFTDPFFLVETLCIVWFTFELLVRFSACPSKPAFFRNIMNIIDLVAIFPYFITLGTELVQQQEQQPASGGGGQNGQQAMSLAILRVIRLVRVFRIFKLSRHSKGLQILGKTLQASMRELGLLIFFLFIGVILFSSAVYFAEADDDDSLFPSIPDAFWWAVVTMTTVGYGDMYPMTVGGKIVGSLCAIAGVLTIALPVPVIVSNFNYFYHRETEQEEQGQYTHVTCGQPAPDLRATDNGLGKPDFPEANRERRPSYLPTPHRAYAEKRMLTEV
Rat whole blood, sequence (P15384 whole entry): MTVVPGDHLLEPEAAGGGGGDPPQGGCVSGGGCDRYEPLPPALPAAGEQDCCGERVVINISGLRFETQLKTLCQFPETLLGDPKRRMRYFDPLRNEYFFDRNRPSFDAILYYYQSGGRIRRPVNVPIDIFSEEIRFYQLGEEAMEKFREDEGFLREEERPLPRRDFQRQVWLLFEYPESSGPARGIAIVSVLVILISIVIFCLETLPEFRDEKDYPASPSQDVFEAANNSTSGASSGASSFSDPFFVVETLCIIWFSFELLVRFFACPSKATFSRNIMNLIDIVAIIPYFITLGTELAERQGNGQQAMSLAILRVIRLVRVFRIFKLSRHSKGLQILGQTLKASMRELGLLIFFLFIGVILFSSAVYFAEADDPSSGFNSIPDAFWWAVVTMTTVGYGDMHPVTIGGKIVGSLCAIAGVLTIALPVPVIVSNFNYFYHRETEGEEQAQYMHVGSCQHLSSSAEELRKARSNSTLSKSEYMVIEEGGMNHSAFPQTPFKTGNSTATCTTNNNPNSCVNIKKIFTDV

`CC[C@H](C)[C@@H]1NC(=O)[C@H](C)NC(=O)[C@H](CCCCN)NC(=O)[C@H](CC(C)C)NC(=O)[C@@H]2CSSC[C@@H](C(=O)N[C@@H](Cc3ccc(O)cc3)C(=O)N3CCC[C@H]3C(=O)N[C@@H](CCCNC(=N)N)C(N)=O)NC(=O)[C@H](Cc3c[nH]cn3)NC(=O)[C@@H]3CSSC[C@H](NC(=O)[C@H](CCC(=O)O)NC(=O)[C@H](C(C)C)NC(=O)[C@H](CO)NC(=O)[C@H](C)NC(=O)[C@H](CO)NC(=O)[C@@H](NC(=O)[C@H](CCCNC(=N)N)NC(=O)[C@H](CCSC)NC(=O)[C@H](CC(=O)O)NC(=O)[C@H](CCSC)NC(=O)[C@@H](N)CC(N)=O)CSSC[C@H](NC(=O)[C@H](CCCCN)NC(=O)CNC(=O)[C@H](Cc4ccccc4)NC(=O)[C@H]([C@@H](C)CC)NC(=O)[C@H](CO)NC(=O)CNC1=O)C(=O)N[C@@H](CCSC)C(=O)N[C@@H](CC(N)=O)C(=O)N[C@@H](CCCCN)C(=O)N[C@@H](CCCCN)C(=O)N3)C(=O)N[C@@H](CCCCN)C(=O)N[C@@H](CCC(N)=O)C(=O)N[C@@H](CCCCN)C(=O)N2` [compound 41] (H-NMDMRCSASVECKQKCLKAIGSIFGKCMNKKCHCYPR-NH2; disulfide 6-27, 12-32, 16-34) was tested, and the “Selectivity ratio Kv1.1/Kv1.3” value (human Kv1.1) was over 16100, the “Selectivity ratio Kv1.6/Kv1.3” value (human Kv1.6) was over 16100 and the pIC50 (Rat whole blood) was 9.11. The “Selectivity ratio Kv1.2/Kv1.3” value (human Kv1.2) was 1816.

`CCCC[C@@H]1NC(=O)[C@@H]2CSSC[C@H](NC(=O)[C@H](CCCNC(=N)N)NC(=O)[C@H](CCCC)NC(=O)[C@H](CC(=O)O)NC(=O)[C@H](CCCC)NC(=O)[C@@H](N)CC(N)=O)C(=O)N[C@@H](CCCNC(=N)N)C(=O)N[C@@H](C)C(=O)N[C@@H](CO)C(=O)N[C@@H](C(C)C)C(=O)N[C@@H](CCC(=O)O)C(=O)N[C@H]3CSSC[C@H](NC(=O)[C@H](CCCCN)NC(=O)[C@H](CCCCN)NC(=O)[C@H](CC(N)=O)NC1=O)C(=O)N[C@@H](CCCCN)C(=O)N[C@H](C(=O)N[C@@H](Cc1ccc(O)cc1)C(=O)N1CCC[C@H]1C(=O)N[C@@H](CCCNC(=N)N)C(N)=O)CSSC[C@H](NC(=O)[C@H](CCCCN)NC(=O)[C@H](CCC(N)=O)NC(=O)[C@H](CCCCN)NC3=O)C(=O)N[C@@H](CC(C)C)C(=O)N[C@@H](CCCCN)C(=O)N[C@@H](C)C(=O)N[C@@H]([C@@H](C)CC)C(=O)NCC(=O)N[C@@H](CO)C(=O)N[C@@H]([C@@H](C)CC)C(=O)N[C@@H](Cc1ccccc1)C(=O)NCC(=O)N[C@@H](CCCCN)C(=O)N2` [compound 46] (H-N[Nle]D[Nle]RCRASVECKQKCLKAIGSIFGKC[Nle]NKKCKCYPR-NH2; disulfide 6-27, 12-32, 16-34) was tested, and the “Selectivity ratio Kv1.1/Kv1.3” value (human Kv1.1) was over 18600, the “Selectivity ratio Kv1.6/Kv1.3” value (human Kv1.6) was 1954 and the pIC50 (Rat whole blood) was 9.04. The “Selectivity ratio Kv1.2/Kv1.3” value (human Kv1.2) was 674.

For `CCCC[C@@H]1NC(=O)[C@@H]2CSSC[C@H](NC(=O)[C@H](CCCNC(=N)N)NC(=O)[C@H](CCCC)NC(=O)[C@H](CC(=O)O)NC(=O)[C@H](CCCC)NC(=O)[C@@H](N)CC(N)=O)C(=O)N[C@@H](CO)C(=O)N[C@@H](C)C(=O)N[C@@H](CO)C(=O)N[C@@H](C(C)C)C(=O)N[C@@H](CCC(=O)O)C(=O)N[C@H]3CSSC[C@H](NC(=O)[C@H](CCCCN)NC(=O)[C@H](CCCCN)NC(=O)[C@H](CC(N)=O)NC1=O)C(=O)N[C@@H](CCCCN)C(=O)N[C@H](C(=O)N[C@@H](Cc1ccc(O)cc1)C(=O)N1CCC[C@H]1C(=O)N[C@@H](CCCNC(=N)N)C(N)=O)CSSC[C@H](NC(=O)[C@H](CCCCN)NC(=O)[C@H](CCCCN)NC(=O)[C@H](CCCCN)NC3=O)C(=O)N[C@@H](CC(C)C)C(=O)N[C@@H](CCCCN)C(=O)N[C@@H](C)C(=O)N[C@@H]([C@@H](C)CC)C(=O)NCC(=O)N[C@@H](CO)C(=O)N[C@@H]([C@@H](C)CC)C(=O)N[C@@H](Cc1ccccc1)C(=O)NCC(=O)N[C@@H](CCCCN)C(=O)N2` [compound 49] (H-N[Nle]D[Nle]RCSASVECKKKCLKAIGSIFGKC[Nle]NKKCKCYPR-NH2; disulfide 6-27, 12-32, 16-34), the “Selectivity ratio Kv1.1/Kv1.3” value (human Kv1.1) was over 4000, the “Selectivity ratio Kv1.6/Kv1.3” value (human Kv1.6) was over 4000 and the pIC50 (Rat whole blood) was 8.85. For the same molecule, the “Selectivity ratio Kv1.2/Kv1.3” value (human Kv1.2) was 343.

`CCCC[C@@H]1NC(=O)[C@@H]2CSSC[C@H](NC(=O)[C@H](CCCNC(=N)N)NC(=O)[C@H](CCCC)NC(=O)[C@H](CO)NC(=O)[C@H](CCCC)NC(=O)[C@@H](N)CC(N)=O)C(=O)N[C@@H](CO)C(=O)N[C@@H](C)C(=O)N[C@@H](CO)C(=O)N[C@@H](C(C)C)C(=O)N[C@@H](CCC(=O)O)C(=O)N[C@H]3CSSC[C@H](NC(=O)[C@H](CCCCN)NC(=O)[C@H](CCCCN)NC(=O)[C@H](CC(N)=O)NC1=O)C(=O)N[C@@H](CCCCN)C(=O)N[C@H](C(=O)N[C@@H](Cc1ccc(O)cc1)C(=O)N1CCC[C@H]1C(=O)N[C@@H](CCCNC(=N)N)C(N)=O)CSSC[C@H](NC(=O)[C@H](CCCCN)NC(=O)[C@H](CCC(N)=O)NC(=O)[C@H](CCCCN)NC3=O)C(=O)N[C@@H](CC(C)C)C(=O)N[C@@H](CCCCN)C(=O)N[C@@H](C)C(=O)N[C@@H]([C@@H](C)CC)C(=O)NCC(=O)N[C@@H](CO)C(=O)N[C@@H]([C@@H](C)CC)C(=O)N[C@@H](Cc1ccccc1)C(=O)NCC(=O)N[C@@H](CCCCN)C(=O)N2` [compound 50] (H-N[Nle]S[Nle]RCSASVECKQKCLKAIGSIFGKC[Nle]NKKCKCYPR-NH2; disulfide 6-27, 12-32, 16-34) was tested, and the “Selectivity ratio Kv1.1/Kv1.3” value (human Kv1.1) was over 9400, the “Selectivity ratio Kv1.6/Kv1.3” value (human Kv1.6) was 4359 and the pIC50 (Rat whole blood) was 9.10. For the same molecule, the “Selectivity ratio Kv1.2/Kv1.3” value (human Kv1.2) was 943.

`CCCC[C@@H]1NC(=O)[C@@H]2CSSC[C@H](NC(=O)[C@H](CCCNC(=N)N)NC(=O)[C@H](CCCC)NC(=O)[C@H](CC(=O)O)NC(=O)[C@H](CCCC)NC(=O)[C@@H](N)CC(N)=O)C(=O)N[C@@H](CO)C(=O)N[C@@H](Cc3c[nH]cn3)C(=O)N[C@@H](CO)C(=O)N[C@@H](C(C)C)C(=O)N[C@@H](CCC(=O)O)C(=O)N[C@H]3CSSC[C@H](NC(=O)[C@H](CCCCN)NC(=O)[C@H](CCCCN)NC(=O)[C@H](CC(N)=O)NC1=O)C(=O)N[C@@H](CCCCN)C(=O)N[C@H](C(=O)N[C@@H](Cc1ccc(O)cc1)C(=O)N1CCC[C@H]1C(=O)N[C@@H](CCCNC(=N)N)C(N)=O)CSSC[C@H](NC(=O)[C@H](CCCCN)NC(=O)[C@H](CCC(N)=O)NC(=O)[C@H](CCCCN)NC3=O)C(=O)N[C@@H](CC(C)C)C(=O)N[C@@H](CCCCN)C(=O)N[C@@H](C)C(=O)N[C@@H]([C@@H](C)CC)C(=O)NCC(=O)N[C@@H](CO)C(=O)N[C@@H]([C@@H](C)CC)C(=O)N[C@@H](Cc1ccccc1)C(=O)NCC(=O)N[C@@H](CCCCN)C(=O)N2` [compound 51] (H-N[Nle]D[Nle]RCSHSVECKQKCLKAIGSIFGKC[Nle]NKKCKCYPR-NH2; disulfide 6-27, 12-32, 16-34) was tested, and the “Selectivity ratio Kv1.1/Kv1.3” value (human Kv1.1) was over 5600, the “Selectivity ratio Kv1.6/Kv1.3” value (human Kv1.6) was 1134 and the pIC50 (Rat whole blood) was 9.08. The “Selectivity ratio Kv1.2/Kv1.3” value (human Kv1.2) was 1438.
